A value given as a limit tells only on which side of the number the result lay.

The test system of one assay is P. falciparum (NF54 or 3D7 strain). Nature of the assay: Assay for P. falciparum proliferation in infected human blood cells (SYBR Green). It is filed as cell-based, Plasmodium falciparum. The following applies: NF54 or 3D7 infected human erythrocytes, 72 hours; read-out: EC50 (nM), inhibitory efficacy in delaying P. falciparum proliferation in infected human blood cells. The procedure: Assay for P. falciparum Proliferation in Infected Human Blood Cells
Compounds of the invention can be assayed to measure their capacity to inhibit proliferation of P. falciparum parasitemia in infected red blood cells. This parasite proliferation assay measures the increase in parasite DNA content using a DNA intercalating dye, SYBR Green® (INVITROGEN®) which has a high affinity for double stranded DNA.
NF54 or 3D7 P. falciparum strain is grown in complete culturing media until parasitemia reaches 3% to 8% with O+ human erythrocytes. […] 20 μl of screening media is dispensed into 384 well assay plates. 50 nl of compounds of the invention (in DMSO), including antimalarial controls (mefloquine, pyrimethamine and artemisinin), are then transferred into the assay plates, as well as DMSO alone to serve as a negative control for inhibition. Then 30 μl of a suspension of a NF54 or 3D7 P. falciparum infected erythrocytes in screening media is dispensed into the assay plates such that the final hematocrit is 2.5% with a final parasitemia of 0.3%. The plates are placed in a 37° C. incubator for 72 hours in a low oxygen environment containing 93% N2, 4% CO2, and 3% O2 gas mixture. 10 μl of lysis buffer (saponin, triton-X, EDTA) containing a 10× solution of SYBR Green I® in RPMI media is dispensed into the plates. The plates are lidded and kept at room temperature overnight for the lysis of the infected red blood cells. The fluorescence intensity is measured (excitation […], emission 530 nm) using the Envision™ system (Perkin Elmer).
With “4-{6-[N-methyl(4-cyanobenzene)amido]imidazo[1,2-a]pyrazin-3-yl}benzamide [Compound 495]”, the EC50 is 405 nM.

Still in this assay, the particulars now being: Plasmodium falciparum, 3D7|NF54, Erythrocyte, in Homo sapiens, 72 h, NF54 or 3D7 infected human erythrocytes, 72 hours; read-out: EC50 (nM), inhibitory efficacy in delaying P. falciparum proliferation in infected human blood cells.
Turning to `CN(Cc1cn2c(-c3ccc(-n4cccn4)cc3)cnc2cn1)c1ccc(F)cc1` [Compound 10], the EC50 was found to be 189 nM.

The assay is the same for the next values; noted with them: Plasmodium falciparum, Erythrocyte, 72 h, NF54 or 3D7 infected human erythrocytes, 72 hours; read-out: EC50 (nM), inhibitory efficacy in delaying P. falciparum proliferation in infected human blood cells.
As to `CC(N)C(=O)Nc1ccc(-c2cnc3cnc(C(=O)N(C)c4ccc(C#N)cc4)cn23)cc1` (stereo in doubt) [Compound 271, 3-{4-[(2S)-2-aminopropanamido]phenyl}-N-(4-cyanophenyl)-N-methylimidazo[1,2-a]pyrazine-6-carboxamide], the EC50 was found to be 207 nM. On to `CN(C(=O)c1cn2c(-c3ccc(NC(=O)C(N)C4CC4)cc3)cnc2cn1)c1ccc(C#N)cc1` (stereo in doubt) [Compound 292, 3-{4-[(2S)-2-amino-2-cyclopropylacetamido]phenyl}-N-(4-cyanophenyl)-N-methylimidazo[1,2-a]pyrazine-6-carboxamide], for which the EC50 came out at 304 nM. `CN(C)CCCOc1ccc(-c2cnc3cnc(C(=O)N(C)c4ccc(C#N)cc4)cn23)cn1` [Compound 1, N-(4-cyanophenyl)-3-(6-(3-(dimethylamino)propoxy)pyridin-3-yl)-N-methylimidazo[1,2-a]pyrazine-6-carboxamide]: the EC50 is 477 nM. Consider `CN(Cc1cn2c(-c3ccc(-c4ccn[nH]4)cc3)cnc2cn1)c1ccc(C#N)cc1` [Compound 2, 4-(((3-(4-(1H-pyrazol-5-yl)phenyl)imidazo[1,2-a]pyrazin-6-yl)methyl)(methyl)amino)benzonitrile], for which the EC50 amounted to 66 nM. Consider `CN(Cc1cn2c(-c3ccc(-c4ccn[nH]4)cc3)cnc2cn1)c1ccc(F)cc1` [Compound 3, N-((3-(4-(1H-pyrazol-5-yl)phenyl)imidazo[1,2-a]pyrazin-6-yl)methyl)-4-fluoro-N-methylaniline], for which the EC50 came out at 58 nM. The same measure, in the same setting: in the case of `CN(Cc1cn2c(-c3ccc(Cl)cc3)cnc2cn1)c1ccc(C#N)cc1` [Compound 4, 4-(((3-(4-chlorophenyl)imidazo[1,2-a]pyrazin-6-yl)methyl)(methyl)amino)benzonitrile] it was 185 nM. As for `CN(Cc1cn2c(-c3ccc(-c4ccn[nH]4)cc3)cnc2cn1)c1ccc(Cl)cc1` [Compound 5, N-((3-(4-(1H-pyrazol-5-yl)phenyl)imidazo[1,2-a]pyrazin-6-yl)methyl)-4-chloro-N-methylaniline], the EC50 is 238 nM. On the same count and under the same terms, next, `CN(C(=O)c1cn2c(-c3ccc(C(F)(F)F)cc3)cnc2cn1)c1ncc(Cl)cc1F` [Compound 6, N-(5-chloro-3-fluoropyridin-2-yl)-N-methyl-3-(4-(trifluoromethyl)phenyl)imidazo[1,2-a]pyrazine-6-carboxamide]: 619 nM; `CS(=O)(=O)c1ccc2c(c1)CCN2C(=O)c1cn2c(-c3ccc(C(F)(F)F)cc3)cnc2cn1` [Compound 7, 5-methanesulfonyl-1-({3-[4-(trifluoromethyl)phenyl]imidazo[1,2-a]pyrazin-6-yl}carbonyl)-2,3-dihydro-1H-indole]: over 10000 nM. Still for that read-out and setting: next, `CN(Cc1cn2c(-c3ccc4c(cnn4C)c3)cnc2cn1)c1ccc(F)cc1` [Compound 8, 4-fluoro-N-methyl-N-((3-(1-methyl-1H-indazol-5-yl)imidazo[1,2-a]pyrazin-6-yl)methyl)aniline]: 21 nM; `CN(Cc1cn2c(-c3ccc(-n4cccn4)cc3)cnc2cn1)c1ccc(Cl)cc1` [Compound 9, N-((3-(4-(1H-pyrazol-1-yl)phenyl)imidazo[1,2-a]pyrazin-6-yl)methyl)-4-chloro-N-methylaniline]: 218 nM. On the same count and under the same terms, in the case of `CN(C(=O)c1cn2c(-c3ccc(C(F)(F)F)cc3)cnc2cn1)c1ccc2c(c1)nnn2C` [Compound 12, N-methyl-N-(1-methyl-1H-benzo[d][1,2,3]triazol-5-yl)-3-(4-(trifluoromethyl)phenyl)imidazo[1,2-a]pyrazine-6-carboxamide] it was 4850 nM; in that of `CN(C(=O)c1cn2c(-c3ccc(-c4ccn[nH]4)cc3)cnc2cn1)c1ccc(Cl)cc1` [Compound 13, N-(4-chlorophenyl)-N-methyl-3-[4-(1H-pyrazol-5-yl)phenyl]imidazo[1,2-a]pyrazine-6-carboxamide], 41 nM.

With `CN(C(=O)c1cn2c(-c3ccc(C(F)(F)F)cc3)cnc2cn1)c1nc2ccccc2s1` [Compound 14, N-(1,3-benzothiazol-2-yl)-N-methyl-3-[4-(trifluoromethyl)phenyl]imidazo[1,2-a]pyrazine-6-carboxamide], the EC50 worked out at 9580 nM.

Turning to `CN(C(=O)c1cn2c(-c3ccc(-c4nnc(N)o4)cc3)cnc2cn1)c1ccc(Cl)cc1` [Compound 15, -[4-(5-amino-1,3,4-oxadiazol-2-yl)phenyl]-N-(4-chlorophenyl)-N-methylimidazo[1,2-a]pyrazine-6-carboxamide], the EC50 amounted to 29 nM. Still for that read-out and setting: in the case of `COc1cccnc1N(C)C(=O)c1cn2c(-c3ccc(C(F)(F)F)cc3)cnc2cn1` [Compound 16, N-(3-methoxypyridin-2-yl)-N-methyl-3-[4-(trifluoromethyl)phenyl]imidazo[1,2-a]pyrazine-6-carboxamide] it was 454 nM; in that of `CN(C(=O)c1cn2c(-c3ccc(Cl)cc3)cnc2cn1)c1ccc(S(C)(=O)=O)cc1` [Compound 17, 3-(4-chlorophenyl)-N-(4-methanesulfonylphenyl)-N-methylimidazo[1,2-a]pyrazine-6-carboxamide], 602 nM; in that of `CN(Cc1cn2c(-c3ccc(Cl)cc3)cnc2cn1)c1ccc(F)cc1` [Compound 18, N-{[3-(4-chlorophenyl)imidazo[1,2-a]pyrazin-6-yl]methyl}-4-fluoro-N-methylaniline], 78 nM. Consider `Cc1ccc(-c2cnc3cnc(C(=O)N(C)c4ccc(C#N)cc4)cn23)nc1` [Compound 19, N-(4-cyanophenyl)-N-methyl-3-(5-methylpyridin-2-yl)imidazo[1,2-a]pyrazine-6-carboxamide], for which the EC50 worked out at 280 nM. The same measure, in the same setting: next, `CN(C(=O)c1cn2c(-c3ccc(Cl)cc3Cl)cnc2cn1)c1ccc(C#N)cc1` [Compound 20, N-(4-cyanophenyl)-3-(2,4-dichlorophenyl)-N-methylimidazo[1,2-a]pyrazine-6-carboxamide]: over 10000 nM; `CN(Cc1cn2c(-c3ccc(OC(F)F)cc3)cnc2cn1)c1ccc(F)cc1` [Compound 21, N-({3-[4-(difluoromethoxy)phenyl]imidazo[1,2-a]pyrazin-6-yl}methyl)-4-fluoro-N-methylaniline]: 46 nM. Same read-out and setting: in the case of `CN(C(=O)c1cn2c(-c3ccc(C(N)=O)cc3)cnc2cn1)c1ccc(F)c(F)c1` [Compound 22, 3-(4-carbamoylphenyl)-N-(3,4-difluorophenyl)-N-methylimidazo[1,2-a]pyrazine-6-carboxamide] it was 74 nM; in that of `CN(C(=O)c1cn2c(-c3ccc(C(F)(F)F)cc3)cnc2cn1)c1ccc(F)cc1F` [Compound 23, N-(2,4-difluorophenyl)-N-methyl-3-[4-(trifluoromethyl)phenyl]imidazo[1,2-a]pyrazine-6-carboxamide], 99 nM.

`CN(C(=O)c1ccc(N2CCOCC2)cc1)c1cn2c(-c3ccc(C(F)(F)F)cc3)cnc2cn1` [Compound 24, N-methyl-4-(morpholin-4-yl)-N-{3-[4-(trifluoromethyl)phenyl]imidazo[1,2-a]pyrazin-6-yl}benzamide]: the EC50 is 1120 nM. On the same count and under the same terms, in the case of `CN(Cc1cn2c(-c3ccc(-c4nnc(N)s4)cc3)cnc2cn1)c1ccc(C#N)cc1` [Compound 25, 4-[({3-[4-(5-amino-1,3,4-thiadiazol-2-yl)phenyl]imidazo[1,2-a]pyrazin-6-yl}methyl)(methyl)amino]benzonitrile] it was 6 nM. For `Cc1cc(Cl)ccc1-c1cnc2cnc(C(=O)N(C)c3ccc(C#N)cc3)cn12` [Compound 26, 3-(4-chloro-2-methylphenyl)-N-(4-cyanophenyl)-N-methylimidazo[1,2-a]pyrazine-6-carboxamide], the EC50 worked out at 8330 nM. Same read-out and setting: next, `CN(C(=O)c1cn2c(-c3ccnc(Cl)c3)cnc2cn1)c1ccc(C#N)cc1` [Compound 27, 3-(2-chloropyridin-4-yl)-N-(4-cyanophenyl)-N-methylimidazo[1,2-a]pyrazine-6-carboxamide]: over 10000 nM. Still for that read-out and setting: in the case of `CN(Cc1cn2c(-c3ccc(-c4nnc(N)s4)cc3)cnc2cn1)c1ccc(Cl)nc1` [Compound 28, -({3-[4-(5-amino-1,3,4-thiadiazol-2-yl)phenyl]imidazo[1,2-a]pyrazin-6-yl}methyl)-6-chloro-N-methylpyridin-3-amine] it was 13 nM; in that of `CN(C(=O)c1cn2c(-c3ncc(F)cc3F)cnc2cn1)c1ccc(C#N)cc1` [Compound 29, N-(4-cyanophenyl)-3-(3,5-difluoropyridin-2-yl)-N-methylimidazo[1,2-a]pyrazine-6-carboxamide], 2040 nM.

Still in this assay, the particulars now being: Plasmodium falciparum, Erythrocyte, infected human red blood cells; read-out: EC50, P. falciparum Proliferation Assay.
With `CN(Cc1cn2c(-c3ccc(-c4nnc(N)s4)cc3)cnc2cn1)c1ccc(C#N)cc1` [Compound 25, 4-[({3-[4-(5-amino-1,3,4-thiadiazol-2-yl)phenyl]imidazo[1,2-a]pyrazin-6-yl}methyl)(methyl)amino]benzonitrile], the EC50 was under 50 nM.

For the origin of these results see patent US20150291598A1 (NOVARTIS AG, priority 2012, published 2015).
